Test results as given in patent US7101872B2, “Farnesyl dibenzodiazepinone, and processes for its production” (Ecopia BioSciences, Inc., priority 2003, dated 2006).
In brackets after ≈: the same amount, converted by molar mass.

What was measured:
Type in all cases: cell-based
[1] = tested on: Panc 10.05; assay: MTT cell proliferation, tumor cell lines; conditions: Homo sapiens, Panc1005, Panc 10.05, Pancreatic carcinoma, 96 hrs
Procedure: (§1) Culture conditions: The cell lines listed in Table 4 were used to characterize the cytotoxicity of ECO-04601 against human and animal tumor cell lines. […] Cells were passaged twice to three times per week. Viability was examined by staining with 0.25% trypan blue and only flasks where cell viability was >95% were used for this study. Cell lines amplification and plating: Tumor cells were seeded (1–3×10^3 cells per 100 μL) in 96-wells flat bottom microtiter plates and incubated at 37° C. and 5% CO2 for 16 hrs before treatment in drug-free medium supplemented with 10% serum. Evaluation of inhibitory activity on cell proliferation: Cells were incubated for 96 hrs with 6 log10-fold concentrations of the test substance starting at 10 μg/ml (20 μM). The test substance stock solution (5 mg/mL) was initially diluted at […] in medium supplemented with serum. Other concentrations were then obtained from 1/10 fold successive dilutions in the same supplemented medium. Cell survival was evaluated 96 h later by replacing the culture media with 150 μL fresh medium containing 10 mM 4-(2-hydroxyethyl)-1-piperazineethanesulfonic acid buffer, pH 7.4. Next, 50 μL of 2.5 mg/mL of 3-(4,5-dimethylthiazo-2-yl)-2,5-diphenyltetrazolium bromide (MTT) in phosphate buffer solution, pH 7.4, was added. After 3–4 h of incubation at 37° C., the medium and soluble MTT was removed, and 200 μL of dimethylsulfoxide was added to dissolve the precipitate of reduced MTT followed by addition of 25 μL glycine buffer (0.1 M glycine plus 0.1 M NaCl, pH 10.5). The absorbance was determined at 570 nm with a microplate reader.

[2] = tested on: SK-MEL 28; assay: MTT cell proliferation, tumor cell lines; conditions: Homo sapiens, SK-MEL 28, Melanoma, 96 hrs
Procedure: as §1

[3] = tested on: I83; assay: MTT cell proliferation, tumor cell lines; conditions: Homo sapiens, I83, Leukemia, 96 hrs
Procedure: as §1

[4] = tested on: Panc 96; assay: MTT cell proliferation, tumor cell lines; conditions: Homo sapiens, Panc 96, Pancreatic carcinoma, 96 hrs
Procedure: as §1

[5] = tested on: P388; assay: MTT cell proliferation, tumor cell lines; conditions: Mus musculus, P388, Leukemia, 96 hrs
Procedure: as §1

[6] = tested on: MCF-7; assay: MTT cell proliferation, tumor cell lines; conditions: Homo sapiens, MCF7, MCF-7, Breast adenocarcinoma, 96 hrs
Procedure: as §1

[7] = tested on: SK-MEL-1; assay: MTT cell proliferation, tumor cell lines; conditions: Homo sapiens, SK-MEL-1, Melanoma, 96 hrs
Procedure: as §1

[8] = tested on: SK-MEL 28^VEGF; assay: MTT cell proliferation, tumor cell lines; conditions: Homo sapiens, Melanoma (expressing VEGF), 96 hrs
Procedure: as §1

[9] = tested on: K562; assay: MTT cell proliferation, tumor cell lines; conditions: Homo sapiens, K562, Leukemia myelogeneous, 96 hrs
Procedure: as §1

[10] = tested on: B16 (F10); assay: MTT cell proliferation, tumor cell lines; conditions: Mus musculus, Melanoma, 96 hrs
Procedure: as §1

[11] = tested on: Bacillus subtilis ATCC 23857; assay: MIC broth microdilution; conditions: ATCC23857, 35° C., 24 hrs
Procedure: (§2) The MIC determination of ECO-04601 against bacteria strains (Bacillus subtilis—ATCC 23857; Micrococcus luteus—ATCC 9341) was performed using broth microdilution assay (Methods for Dilution Antimicrobial Susceptibility Tests for Bacteria That Grow Aerobically; Approved Standard-Fifth Edition. NCCLS document M7-A5 (ISBN 1-56238-394-9). NCCLS, 940 West Valley Road, Suite 1400, Wayne, Pa. 19087-1898 USA.). Test compound preparation: […] The first dilution (3.2 mg/ml) was prepared by resuspending 0.5 mg of each test article in 156.25 μl of DMSO. […] Assay plates were incubated at 35° C. for 24 hrs.

[12] = tested on: Micrococcus luteus ATCC 9341; assay: MIC broth microdilution; conditions: ATCC9341, 35° C., 24 hrs
Procedure: as §2

IC50 [1]: 14.2 µM | IC50 [2]: 14 µM | IC50 [3]: 2.7 µM | IC50 [4]: 12.5 µM | IC50 [5]: 10.9 µM | IC50 [6]: 9.7 µM | IC50 [7]: 14.1 µM | IC50 [8]: 14.3 µM | IC50 [9]: 8.6 µM | IC50 [10]: 11.4 µM | MIC [11]: 12.5 mg/L (≈ 27 µM) | MIC [12]: 6.25 mg/L (≈ 13.5 µM)
Structure (SMILES): CC(C)=CCC/C(C)=C/CC/C(C)=C/CN1C(=O)c2cccc(O)c2Nc2c(O)cc(O)cc21 [ECO-04601, 10-farnesyl-4,6,8-trihydroxy-dibenzodiazepin-11-one]
